Measurements reported in ChEMBL document CHEMBL5329201, “Development of 3-acetylindole derivatives that selectively target BRPF1 as new inhibitors of receptor activator of NF-κB ligand (RANKL)-Induced osteoclastogenesis” (Bioorg Med Chem, 2023).
Calls of active or inactive are those of the source. No cut-off for these calls is given here.

How the values were obtained:
[1] = Inhibition of His-tagged human recombinant BRPF1B bromodomain using biotinylated H4 (1 to 21)K5/8/12/16Ac peptide as substrate incubated for 0.5 hrs by AlphaScreen assay
Homo sapiens [2] = species: Homo sapiens; test: Inhibition of His-tagged human recombinant BRPF1B bromodomain using biotinylated H4 (1 to 21)K5/8/12/16Ac peptide as substrate at 20 uM incubated for 0.5 hrs by AlphaScreen assay relative to control
[3] = Anti-osteoclastogensis activity in C57BL/6 mouse BMMC cells assessed as inhibition of RANKL/M-CSF-induced TRAP activity at 1 uM measured after 3 days by colorimetric assay (reference value: 0%); type: functional; settings: C57BL/6, BMMC, 72 h, time 3 day
[4] = Cytotoxicity against C57BL/6 mouse BMMC cells assessed as cell viability at 10 uM measured after 48 hrs by CCK-8 assay (reference value: 100%); type: toxicity, cell-based; settings: read-out: Activity
Homo sapiens [5] = species: Homo sapiens; test: Inhibition of His-tagged human recombinant BRPF1B bromodomain using biotinylated H4 (1 to 21)K5/8/12/16Ac peptide as substrate at 2 uM incubated for 0.5 hrs by AlphaScreen assay relative to control
Homo sapiens [6] = species: Homo sapiens; test: Binding affinity to BRPF1B (unknown origin) assessed as change in melting temperature at 10 uM by Differential scanning fluorimetry
BMMC [7] = test: Anti-osteoclastogenesis activity in C57BL/6 mouse BMMC cells assessed as reduction of RANKL/M-CSF-induced osteoclast activation and differentiation measured after 5 days by TRAP staining based light microscopic analysis; type: functional, cell-based; settings: for Activity: time 5.0 day
BMMC [8] = test: Anti-osteoclastogenesis activity in C57BL/6 mouse BMMC cells assessed as reduction of RANKL/M-CSF-induced c-fos mRNA expression measured after 3 days by qRT-PCR analysis; type: functional, cell-based; settings: dose 2.5-10 µM, time 3.0 day
BMMC [9] = test: (§1) Anti-osteoclastogenesis activity in C57BL/6 mouse BMMC cells assessed as reduction of RANKL/M-CSF-induced bone resorption of osteoclasts by measuring decrease in pit areas treated for 7 days after seeding cells onto bone slices by toluidine blue staining based confocal laser microscopic analysis; type: functional, cell-based; settings: dose 0.625-10 µM, time 7.0 day
BMMC [10] = test: Anti-osteoclastogenesis activity in C57BL/6 mouse BMMC cells assessed as reduction of RANKL/M-CSF-induced osteoclast activation and differentiation by measuring decrease in F-actin ring formation measured after 5 days by F-actin staining based microscopic analysis; type: functional, cell-based; settings: time 5.0 day
BMMC [11] = test: Anti-osteoclastogenesis activity in C57BL/6 mouse BMMC cells assessed as reduction of RANKL/M-CSF-induced NFATc1 mRNA expression at 1 uM measured after 3 days by qRT-PCR analysis; type: functional, cell-based; settings: time 3.0 day
BMMC [12] = test: Anti-osteoclastogenesis activity in C57BL/6 mouse BMMC cells assessed as reduction of RANKL/M-CSF-induced TRAP mRNA expression at 1 uM measured after 3 days by qRT-PCR analysis; type: functional, cell-based; settings: time 3.0 day
BMMC [13] = test: Anti-osteoclastogenesis activity in C57BL/6 mouse BMMC cells assessed as reduction of RANKL/M-CSF-induced c-fos expression at 1 to 10 uM measured after 3 days by Western blot analysis; type: functional, cell-based; settings: dose 1-10 µM, time 3.0 day
BMMC [14] = test: as §1, with “decrease in bone resorption pit formation” for “decrease in pit areas”, “resorption pit formation treated for” for “in pit areas treated for”; type: functional, cell-based; settings: dose 0.625-10 µM, time 7.0 day
BMMC [15] = test: Anti-osteoclastogenesis activity in C57BL/6 mouse BMMC cells assessed as reduction of RANKL/M-CSF-induced osteoclast activation and differentiation by measuring F-actin ring formation with fewer and smaller nuclei measured after 5 days by F-actin staining based microscopic analysis; type: functional, cell-based; settings: time 5.0 day
BMMC [16] = test: Anti-osteoclastogenesis activity in C57BL/6 mouse BMMC cells assessed as reduction of RANKL/M-CSF-induced CTSK mRNA expression at 1 uM measured after 3 days by qRT-PCR analysis; type: functional, cell-based; settings: time 3.0 day

Structure (SMILES) | IC50 [1] | inhibition (Homo sapiens [2]) | inhibition at 1 µM [3] | viability at 48 h, 10 µM [4] | further results
CCOC(=O)Nc1cc(C(=O)Nc2ccccc2)cc2c(C(C)=O)c(C)[nH]c12 | 1700 nM |  |  |  | 
COC(=O)c1cc(NC(=O)c2ccccc2OC)c2[nH]c(C)c(C(C)=O)c2c1 |  | 28.3% |  |  | 
CCOC(=O)Nc1cc(-c2ccccn2)cc2c(C(C)=O)c(C)[nH]c12 | 109 nM |  | 38.8% | 110% | 
CCOC(=O)Nc1cc(-c2ccccc2)cc2c(C(C)=O)c(C)[nH]c12 | 206 nM |  | 0% | 110% | 
COC(=O)c1cc(NC(=O)Nc2ccccc2)c2[nH]c(C)c(C(C)=O)c2c1 |  | 100% |  |  | inhibition (Homo sapiens [5]): 17.6%
COC(=O)c1cc(NC(=O)c2ccc(Cl)cc2)c2[nH]c(C)c(C(C)=O)c2c1 |  |  |  |  | ΔTm (Homo sapiens [6]): 1.92 °C
CC(=O)c1c(C)[nH]c2c(N(C)C)cc(-c3ccncc3)cc12 | 70 nM |  | 67.1% | 110% | 
CC(=O)c1c(C)[nH]c2c(N(C)C)cc(-c3cccnc3)cc12 | 173 nM |  | 26.2% | 104% | 
CCOC(=O)Nc1cc(C(=O)OC)cc2c(C(C)=O)c(C)[nH]c12 | 558 nM | 100% |  |  | inhibition (Homo sapiens [5]): 93.1%; ΔTm (Homo sapiens [6]): 5.39 °C
CCOC(=O)Nc1cc(-c2nccs2)cc2c(C(C)=O)c(C)[nH]c12 | 294 nM |  | 41.3% | 111% | 
CCOC(=O)Nc1cc(C(=O)OC)cc2c(C(C)=O)c(C)n(C)c12 |  | 99.8% |  |  | inhibition (Homo sapiens [5]): 17.6%
CC(=O)c1c(C)[nH]c2c(NC3CNC3)cc(-c3cccnc3)cc12 | 3430 nM |  |  |  | 
COC(=O)c1cc(NC(=O)c2ccccc2)c2[nH]c(C)c(C(C)=O)c2c1 |  | 100% |  |  | inhibition (Homo sapiens [5]): 11.5%
CCOC(=O)Nc1cc(C(=O)Nc2nccs2)cc2c(C(C)=O)c(C)[nH]c12 | 309 nM |  | 0% | 104% | 
CCOC(=O)Nc1cc(C(=O)NC)cc2c(C(C)=O)c(C)[nH]c12 | 908 nM |  | 36.8% | 92.6% | 
CCCC(=O)Nc1cc(C(=O)OC)cc2c(C(C)=O)c(C)[nH]c12 |  | 100% |  |  | inhibition (Homo sapiens [5]): 38.5%
CCOC(=O)Nc1cc(-c2ccncc2)cc2c(C(C)=O)c(C)[nH]c12 | 109 nM |  | 66.5% | 107% | 
CCOC(=O)Nc1cc(-c2cccnc2)cc2c(C(C)=O)c(C)[nH]c12 | 102 nM |  | 73.8% | 113% | IC50 (BMMC [7]; C57BL/6, BMMC, 120 h): 190 nM; Activity (BMMC [7]): Dose-Dependent Effect; Activity (BMMC [8]): Dose-Dependent Effect; Activity (BMMC [9]): Dose-Dependent Effect; Activity (BMMC [10]): Active; Activity (BMMC [11]): Active; Activity (BMMC [12]): Active; Activity (BMMC [13]): Active; Activity (BMMC [14]): Dose-Dependent Effect; Activity (BMMC [15]): Active; Activity (BMMC [16]): Active

Structure (SMILES) | IC50 [1] | inhibition (Homo sapiens [2]) | inhibition at 1 µM [3] | viability at 48 h, 10 µM [4] | further results
CCOC(=O)CNc1cc(C(=O)OC)cc2c(C(C)=O)c(C)[nH]c12 |  |  |  |  | ΔTm (Homo sapiens [6]): 5.18 °C
CCNC(=O)Nc1cc(-c2cccnc2)cc2c(C(C)=O)c(C)[nH]c12 | 1440 nM |  |  |  | 
CC(=O)c1c(C)[nH]c2c(NC3CCNCC3)cc(-c3cccnc3)cc12 | 442 nM |  | 57.1% | 94.9% | 
COc1ccccc1C(=O)Nc1cc2c(cc1N1CCCC1)n(C)c(=O)n2C |  | 100% |  |  | inhibition (Homo sapiens [5]): 101%
COC(=O)c1cc(NS(=O)(=O)c2ccccc2OC)c2[nH]c(C)c(C(C)=O)c2c1 |  | 100% |  |  | inhibition (Homo sapiens [5]): 60%
CC(=O)c1c(C)[nH]c2c(N)cc(-c3cccnc3)cc12 | 1120 nM |  | 0% | 109% | 
CCOC(=O)Nc1cc(C(=O)c2ccccc2)cc2c(C(C)=O)c(C)[nH]c12 | 743 nM |  | 66.8% | 119% | 
CC(=O)c1c(C)[nH]c2c(N(C)C)cc(-c3ccccn3)cc12 | 540 nM |  | 100% | 28.9% | 
COc1ccccc1S(=O)(=O)Nc1cc(-c2cccnc2)cc2c(C(C)=O)c(C)[nH]c12 | 1090 nM |  | 74.2% | 92.7% | Activity (BMMC [7]): Dose-Dependent Effect
COC(=O)c1cc(NC(=O)Nc2ccccc2OC)c2[nH]c(C)c(C(C)=O)c2c1 |  | 91.9% |  |  | 
COC(=O)c1cc(NS(=O)(=O)c2ccccc2)c2[nH]c(C)c(C(C)=O)c2c1 |  | 100% |  |  | inhibition (Homo sapiens [5]): 18.3%
CC(=O)c1c(C)[nH]c2c(N(C)C)cc(-c3nccs3)cc12 | 90 nM |  | 44.1% | 92.6% | 
CCOC(=O)Nc1cc(C(=O)OC)cc2c(C(C)=O)c[nH]c12 |  | 13.1% |  |  | 
CCNC(=O)Nc1cc(C(=O)OC)cc2c(C(C)=O)c(C)[nH]c12 |  | 100% |  |  | inhibition (Homo sapiens [5]): 42.2%
COC(=O)c1cc(NC(=O)Nc2cccc(C(F)(F)F)c2)c2[nH]c(C)c(C(C)=O)c2c1 |  | 82.3% |  |  | 
CCOC(=O)Nc1cc(-c2ccccn2)cc2cc(C)[nH]c12 | > 10000 nM |  |  |  | 
CC(=O)c1c(C)[nH]c2c(N3CCCC3)cc(-c3cccnc3)cc12 | 233 nM |  | 40% | 101% | 
CCOC(=O)Nc1cc(C(=O)NC2CCCC2)cc2c(C(C)=O)c(C)[nH]c12 | 1830 nM |  |  |  | 
